Measurements taken from patent publication US7612211B2, “Benzimidazole TRPV1 inhibitors” (Janssen Pharmaceutica N.V., priority 2006, dated 2009).

Molecular target: T1, hTRPV1 (Homo sapiens, UniProt Q8NER1)
T1 construct: expressed in transfected cells; host or cells: HEK293
Experiment: Human TRPV1 (hTRPV1) functional assay, FLIPR intracellular Ca2+, capsaicin challenge
Assay type: cell-based
Settings: HEK293 cells expressing hTRPV1, capsaicin 0.030 μM challenge; for inhibition at 0.2 µM: test concentration of 0.2 μm, read-out: percent inhibition (symbol b); for IC50: derived from a variety of test concentrations, read-out: IC50 value (symbol c); for inhibition at 0.5 µM: test concentration of 0.5 μm, read-out: percent inhibition (symbol a)
Procedure, shortened: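 HEK293 cells expressing the channel, loaded with Calcium 3 dye, were exposed to compounds for 5 min before capsaicin 0.030 μM (~80% maximal). FLIPR Ca2+ read; IC50/EC50 from quadruplicate concentration-response, or percent inhibition at 0.5 μm or 0.2 μm.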

T1 sequence (Q8NER1 whole entry): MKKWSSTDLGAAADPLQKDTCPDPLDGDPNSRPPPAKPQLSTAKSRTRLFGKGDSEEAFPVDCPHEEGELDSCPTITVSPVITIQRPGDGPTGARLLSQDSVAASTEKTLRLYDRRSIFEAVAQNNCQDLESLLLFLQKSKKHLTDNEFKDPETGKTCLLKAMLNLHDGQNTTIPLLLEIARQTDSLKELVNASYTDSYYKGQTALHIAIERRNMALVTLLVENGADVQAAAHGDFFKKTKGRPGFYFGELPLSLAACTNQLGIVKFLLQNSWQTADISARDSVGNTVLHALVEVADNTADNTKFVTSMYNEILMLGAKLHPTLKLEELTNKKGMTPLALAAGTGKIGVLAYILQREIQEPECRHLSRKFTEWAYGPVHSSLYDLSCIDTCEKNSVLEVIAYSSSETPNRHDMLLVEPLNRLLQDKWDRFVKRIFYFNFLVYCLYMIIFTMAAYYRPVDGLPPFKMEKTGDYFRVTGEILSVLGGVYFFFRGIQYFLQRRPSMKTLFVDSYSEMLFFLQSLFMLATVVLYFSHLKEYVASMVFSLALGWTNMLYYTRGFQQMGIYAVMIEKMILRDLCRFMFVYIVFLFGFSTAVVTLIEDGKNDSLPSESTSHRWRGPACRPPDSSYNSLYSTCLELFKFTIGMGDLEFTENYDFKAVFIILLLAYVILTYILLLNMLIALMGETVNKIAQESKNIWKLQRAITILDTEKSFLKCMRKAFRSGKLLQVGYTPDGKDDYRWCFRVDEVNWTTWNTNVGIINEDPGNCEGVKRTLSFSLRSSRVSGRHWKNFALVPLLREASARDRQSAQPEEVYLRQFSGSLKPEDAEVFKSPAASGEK

Structure (SMILES)	inhibition at 0.2 µM [%]	IC50 [nM]	inhibition at 0.5 µM [%]
CC(O)CNC(=O)c1ccccc1-c1ccc2[nH]c(COc3ccc(C(F)(F)F)cc3)nc2c1 (stereo not drawn) [Cpd 154, N-(2-hydroxy-propyl)-2-[2-(4-trifluoromethyl-phenoxymethyl)-1H-benzoimidazol-5-yl]-benzamide]	68		
CC(=O)Nc1ccc(OCc2nc3cc(-c4ccccc4S(C)(=O)=O)ccc3[nH]2)cc1 [Cpd 95, N-{4-[5-(2-methanesulfonyl-phenyl)-1H-benzoimidazol-2-ylmethoxy]-phenyl}-acetamide]	1		
CC(C)(O)c1ccccc1-c1ccc2[nH]c(COc3ccc(C4CC4)cc3)nc2c1 [Cpd 163, 2-{2-[2-(4-cyclopropyl-phenoxymethyl)-1H-benzoimidazol-5-yl]-phenyl}-propan-2-ol]	98	3	
OCc1cccc(-c2ccc3[nH]c(COc4ccc(C(F)(F)F)cc4)nc3c2)c1 [Cpd 117, {3-[2-(4-trifluoromethyl-phenoxymethyl)-1H-benzoimidazol-5-yl]-phenyl}-methanol]			13
CS(=O)(=O)Nc1ccc(-c2ccc3[nH]c(COc4ccc(C(F)(F)F)cc4)nc3c2)cc1 [Cpd 103, N-{4-[2-(4-trifluoromethyl-phenoxymethyl)-1H-benzoimidazol-5-yl]-phenyl}-methanesulfonamide]			7
CNS(=O)(=O)c1ccccc1-c1ccc2[nH]c(COc3ccc(Cl)cc3)nc2c1 [Cpd 18, 2-[2-(4-chloro-phenoxymethyl)-1H-benzoimidazol-5-yl]-N-methyl-benzenesulfonamide]		71	97
COc1ccc(OCc2nc3cc(-c4ccccc4S(C)(=O)=O)ccc3[nH]2)cc1 [Cpd 96, 5-(2-methanesulfonyl-phenyl)-2-(4-methoxy-phenoxymethyl)-1H-benzoimidazole]	6		
Oc1ccccc1-c1ccc2[nH]c(COc3ccc(C(F)(F)F)cc3)nc2c1 [Cpd 119, 2-[2-(4-trifluoromethyl-phenoxymethyl)-1H-benzoimidazol-5-yl]-phenol]			14
CC(O)C(=O)c1ccccc1-c1ccc2[nH]c(COc3ccc(C(F)(F)F)cc3)nc2c1 (stereo not drawn) [Cpd 146, 2-hydroxy-1-{2-[2-(4-trifluoromethyl-phenoxymethyl)-1H-benzoimidazol-5-yl]-phenyl}-propan-1-one]	72		
CS(=O)(=O)c1ccccc1-c1ccc2[nH]c(COc3ccc(SC(F)(F)F)cc3)nc2c1 [Cpd 82, 5-(2-methanesulfonyl-phenyl)-2-(4-trifluoromethanesulfide-phenoxymethyl)-1H-benzoimidazole]	99	7	
NS(=O)(=O)c1ccccc1-c1ccc2[nH]c(COc3ccc(Cl)cc3)nc2c1 [Cpd 7, 2-[2-(4-chloro-phenoxymethyl)-1H-benzoimidazol-5-yl]-benzenesulfonamide]		13	
CS(=O)(=O)c1ccccc1-c1ccc2[nH]c(COc3ccc(Cl)cc3)nc2c1 [Cpd 59, 2-(4-chloro-phenoxymethyl)-5-(2-methanesulfonyl-phenyl)-1H-benzoimidazole]	87	18	
NS(=O)(=O)c1ccccc1-c1ccc2[nH]c(COc3cc(C(F)(F)F)cc(C(F)(F)F)c3)nc2c1 [Cpd 31, 2-[2-(3,5-bis-trifluoromethyl-phenoxymethyl)-1H-benzoimidazol-5-yl]-benzenesulfonamide]		10.6	97
CS(=O)(=O)c1ccccc1-c1ccc2[nH]c(COc3cc(Cl)cc(Cl)c3)nc2c1 [Cpd 93, 2-(3,5-dichloro-phenoxymethyl)-5-(2-methanesulfonyl-phenyl)-1H-benzoimidazole]	11		
CC(C)(C)c1ccc(OCc2nc3cc(-c4ccccc4S(C)(=O)=O)ccc3[nH]2)cc1 [Cpd 78, 2-(4-tert-butyl-phenoxymethyl)-5-(2-methanesulfonyl-phenyl)-1H-benzoimidazole]	98	3	
Oc1ccc(-c2ccc3[nH]c(COc4ccc(C(F)(F)F)cc4)nc3c2)cc1 [Cpd 121, 4-[2-(4-trifluoromethyl-phenoxymethyl)-1H-benzoimidazol-5-yl]-phenol]			9
NS(=O)(=O)c1ccccc1-c1ccc2[nH]c(COc3ccc4ncccc4c3)nc2c1 [Cpd 37, 2-[2-(quinolin-6-yloxymethyl)-1H-benzoimidazol-5-yl]-benzenesulfonamide]			50
CS(=O)(=O)c1ccccc1-c1ccc2[nH]c(COc3cccc(Cl)c3)nc2c1 [Cpd 58, 2-(3-chloro-phenoxymethyl)-5-(2-methanesulfonyl-phenyl)-1H-benzoimidazole]	22		
CC(=O)Nc1cccc(OCc2nc3cc(-c4ccccc4S(C)(=O)=O)ccc3[nH]2)c1 [Cpd 94, N-{3-[5-(2-methanesulfonyl-phenyl)-1H-benzoimidazol-2-ylmethoxy]-phenyl}-acetamide]	1		

Structure (SMILES)	inhibition at 0.2 µM [%]	IC50 [nM]	inhibition at 0.5 µM [%]
CC(C)(O)c1ccccc1-c1ccc2[nH]c(COc3ccc(S(C)(=O)=O)cc3)nc2c1 [Cpd 25, 2-{2-[2-(4-methanesulfonyl-phenoxymethyl)-1H-benzoimidazol-5-yl]-phenyl}-propan-2-ol]		13	100
CC(=O)Nc1ccccc1-c1ccc2[nH]c(COc3ccc(C(F)(F)F)cc3)nc2c1 [Cpd 113, N-{2-[2-(4-trifluoromethyl-phenoxymethyl)-1H-benzoimidazol-5-yl]-phenyl}-acetamide]			42
COC(=O)CCc1ccc(OCc2nc3cc(-c4ccccc4S(C)(=O)=O)ccc3[nH]2)cc1 [Cpd 88, 3-{4-[5-(2-methanesulfonyl-phenyl)-1H-benzoimidazol-2-ylmethoxy]-phenyl}-propionic acid methyl ester]	36		
CS(=O)(=O)c1ccccc1-c1ccc2[nH]c(COc3ccc(Br)cc3)nc2c1 [Cpd 61, 2-(4-bromo-phenoxymethyl)-5-(2-methanesulfonyl-phenyl)-1H-benzoimidazole]	77	66	
Cc1ccc(OCc2nc3cc(-c4ccccc4S(N)(=O)=O)ccc3[nH]2)cc1 [Cpd 27, 2-(2-p-tolyloxymethyl-1H-benzoimidazol-5-yl)-benzenesulfonamide]		12	98
CNS(=O)(=O)c1ccccc1-c1ccc2[nH]c(COc3ccc(C4CC4)cc3)nc2c1 [Cpd 165, 2-[2-(4-cyclopropyl-phenoxymethyl)-1H-benzoimidazol-5-yl]-N-methyl-benzenesulfonamide]	98	6	
CN(C)S(=O)(=O)c1ccccc1-c1ccc2[nH]c(COc3ccc(C(F)(F)F)cc3)nc2c1 [Cpd 106, N,N-dimethyl-2-[2-(4-trifluoromethyl-phenoxymethyl)-1H-benzoimidazol-5-yl]-benzenesulfonamide]		3	94
CS(=O)(=O)c1ccccc1-c1ccc2[nH]c(COc3ccc(F)c(C(F)(F)F)c3)nc2c1 [Cpd 72, 2-(4-fluoro-3-trifluoromethyl-phenoxymethyl)-5-(2-methanesulfonyl-phenyl)-1H-benzoimidazole]	96	30	
CN(C)S(=O)(=O)c1ccccc1-c1ccc2[nH]c(COc3ccc(C4CC4)cc3)nc2c1 [Cpd 166, 2-[2-(4-cyclopropyl-phenoxymethyl)-1H-benzoimidazol-5-yl]-N,N-dimethyl-benzenesulfonamide]	98	7	
NS(=O)(=O)c1ccccc1-c1ccc2[nH]c(COc3ccc(Br)cc3)nc2c1 [Cpd 8, 2-[2-(4-bromo-phenoxymethyl)-1H-benzoimidazol-5-yl]-benzenesulfonamide]		6.6	
CS(=O)(=O)c1ccccc1-c1ccc2[nH]c(COc3ccc4c(c3)CCCC4)nc2c1 [Cpd 87, 5-(2-methanesulfonyl-phenyl)-2-(5,6,7,8-tetrahydro-naphthalen-2-yloxymethyl)-1H-benzoimidazole]	96	14	
NS(=O)(=O)c1cc(C(F)(F)F)ccc1-c1ccc2[nH]c(COc3ccc(C(F)(F)F)cc3)nc2c1 [Cpd 133, 5-trifluoromethyl-2-[2-(4-trifluoromethyl-phenoxymethyl)-1H-benzoimidazol-5-yl]-benzenesulfonamide]		105	92
CC(C)c1ccc(OCc2nc3cc(-c4ccccc4S(C)(=O)=O)ccc3[nH]2)cc1 [Cpd 77, 2-(4-isopropyl-phenoxymethyl)-5-(2-methanesulfonyl-phenyl)-1H-benzoimidazole]	100	3	
CNS(=O)(=O)c1ccc(-c2ccc3[nH]c(COc4ccc(C(F)(F)F)cc4)nc3c2)cc1 [Cpd 125, N-methyl-4-[2-(4-trifluoromethyl-phenoxymethyl)-1H-benzoimidazol-5-yl]-benzenesulfonamide]			11
CN(C)C(=O)C(O)c1ccccc1-c1ccc2[nH]c(COc3ccc(C(F)(F)F)cc3)nc2c1 (stereo not drawn) [Cpd 148, N,N-dimethyl-2-hydroxy-2-{2-[2-(4-trifluoromethyl-phenoxymethyl)-1H-benzoimidazol-5-yl]-phenyl}-acetamide]	89	58	
NS(=O)(=O)c1ccccc1-c1ccc2[nH]c(COc3ccc(F)c(F)c3)nc2c1 [Cpd 10, 2-[2-(3,4-difluoro-phenoxymethyl)-1H-benzoimidazol-5-yl]-benzenesulfonamide]		120	
CS(=O)(=O)c1ccccc1-c1ccc2[nH]c(COc3ccccc3)nc2c1 [Cpd 53, 5-(2-methanesulfonyl-phenyl)-2-phenoxymethyl-1H-benzoimidazole]	17		
CS(=O)(=O)c1ccccc1-c1ccc2[nH]c(COc3ccc(F)cc3F)nc2c1 [Cpd 62, 2-(2,4-difluoro-phenoxymethyl)-5-(2-methanesulfonyl-phenyl)-1H-benzoimidazole]	24		
